In patent US20080305157A1, “Encapsulation and separation of charged organic solutes inside catanionic vesicles” (University of Maryland Office of Technology …, priority 2007, published 2008):
Values joined by “and” are separate entries in the source; they are usually repeats but may differ in a detail not shown here. Equal values may be shown once. Where a name gives a salt, the structure may show the parent alone.

How the values were obtained:
[1] = Vesicle radius by dynamic light scattering (DLS); format: physicochemical; details: for Vesicle Radius after SEC by DLS CTAT-Rich V^+: V^+ vesicles with 1 mM solute; for Vesicle Radius after SEC by DLS SDBS-Rich V^−: V^− vesicles with 1 mM solute
Description: Vesicle sizes in solution were monitored using dynamic light scattering (DLS) on a Photocor-FC instrument. The light source was a 5 mW laser at 633 nm and the scattering angle was 90°. A logarithmic correlator was used to obtain the autocorrelation function, which was analyzed by the method of cumulants to yield a diffusion coefficient. The apparent hydrodynamic size of the vesicles was obtained from the diffusion coefficient through the Stokes-Einstein relationship. The intensity (total counts) of the signal was also recorded for each sample.
(§1) The apparent encapsulation efficiencies of the two vesicle preparations, V^+ and V^−, were also evaluated for the other solute molecules shown in FIG. 9. A solute concentration of 1 mM was used in all cases. Lucifer yellow (LY) is dianionic in water and Sulforhodamine 101 (SR101) is monanionic. […] Doxorubicin hydrochloride (Dox) is a cationic drug with a pKa of ˜7.619 that has been used to treat a variety of cancers. […] In each case, vesicles were prepared using aqueous solutions of the solute at a concentration of 1 mM. The solute/CTAT/SDBS mixtures were stirred for 30-60 min, or overnight, and the resulting vesicle solutions were allowed to equilibrate in the dark at room temperature for at least 48 h. Thereafter, the samples were passed through a 25 mm syringe filter (0.45 μm mesh) to remove any impurities. Dynamic light scattering was conducted to confirm vesicle formation and to measure the average vesicle size.
A low solute concentration, e.g., 1 mM, was used in the experiments to ensure the stability of our vesicle formulations. […] Even at a concentration of 1 mM, some solutes may have a large effect on vesicle morphology. To study these aspects in some detail, dynamic light scattering (DLS) and small angle neutron scattering (SANS) were used. DLS was performed on purified vesicles obtained from the SEC column (after removing all the free solute); the sizes of solute-containing vesicles were compared with the sizes of neat vesicles (no solute). DLS gave radii of 74 nm for neat V^+ vesicles and 70 nm for neat V^− vesicles. Passing these neat vesicles through an SEC column changed their sizes slightly and the new radii were 81 nm for V^+ and 98 nm for V^− vesicles. […] However, while 1 mM of the anionic solute Lucifer yellow (LY) had no effect on V^− vesicles, it induced a 2.5 fold increase in the radii of V^+ vesicles.

[2] = Long-term CF release from vesicles by self-quenching fluorescence, R(t); format: physicochemical
Description: The self-quenching behavior of carboxyfluorescein (CF) was used to monitor dye efflux from vesicles. CF is a widely used probe for vesicle encapsulation due to its ability to undergo efficient self-quenching of fluorescence at millimolar concentrations. For example, when 60 mM CF is entrapped in vesicles, its fluorescence intensity is reduced by 60-80%, but as the dye is released from the vesicle, and thus diluted by the surrounding buffer, its fluorescence intensity increases.
Samples were checked on a specific day by placing a fixed aliquot (1.5 mL) into a 1 cm cuvette and monitoring its emission at 520 nm while exciting at 490 nm using a Spex Fluorolog-3 spectrometer. The intensity was monitored for several minutes to establish the baseline fluorescence intensity, which contains a contribution from both free and encapsulated dyes. After the baseline was established, 100 uL of 10% (w/w) aqueous Triton X-100 was added to disrupt the vesicles. Vesicle disruption results in the release of all dye molecules into solution and a concomitant increase in fluorescence. For these experiments, a substantial volume of sample was prepared on the first day and run on the SEC column to remove free dye. […] The traces show the emission intensity before and after the addition of Triton X-100, a nonionic detergent that disrupts both lipid and surfactant vesicles. […] As expected, the largest jump occurs for the freshly prepared vesicle solution where all the dye is encapsulated in the vesicles. We compare the magnitude of the jump on Day x with the highest jump (Day 0) and thereby obtain the fraction of the dye released on day x, R(t=x), the calculation of which is described below. […]
To monitor long-term leakage rates, the fraction of dye released as a function of time, R(t), was calculated for a given day. This quantity measures the fraction of encapsulation on Day x relative to the initial value on Day 0:
where F(initial) and F(final) are the fluorescence intensities before and after adding the Triton X-100. […]

[3] = Dye adsorption: dye added to preformed vesicles, then SEC; format: physicochemical
[4] = Separation of oppositely charged solute mixtures with catanionic vesicles by SEC; format: physicochemical; details: for Dye carried through SEC column within the V^+ vesicle band / Dye in the V^− vesicle band emerging from SEC column: equimolar CF and R6G, total dye 0.5 mM; for Dye carried through SEC column within the V^+ vesicle band: V^+ vesicles; for Dye in the V^− vesicle band emerging from SEC column: V^− vesicles; for Separation of LY and Dox by catanionic vesicles in SEC: total compound concentration 1 mM
Description: Catanionic vesicles were prepared with equimolar mixtures of two solutes, the cationic organic dye rhodamine 6G (R6G) and the anionic dye carboxyfluorescein (CF). The total solute concentration was maintained at either 0.5 or 1.0 mM, and experiments were done with both positively charged vesicles (V^+) (excess of cationic CTAT) and negatively charged vesicles (V^−) (excess of anionic SDBS) formed from cetyltrimethylammonium tosylate (CTAT) and sodium dodecylbenzenesulfonate (SDBS).
Experiments with these solute mixtures were performed and analyzed by performing size exclusion chromatography on the sample and measuring the dye concentration of each fraction to obtain an apparent encapsulation value, ε, for each dye (see below). The dye concentration in each fraction was determined by UV-vis spectroscopy. To account for the overlapping of the dye spectra, we subtracted a scaled spectrum of pure R6G from the total spectrum in order to find the peak absorbance of CF.

[5] = Apparent encapsulation efficiency (ε) of solutes in vesicles by SEC and UV-vis; format: physicochemical; details: inner water pool only
[6] = as above; format: physicochemical; details: 1 wt% surfactant, 1 mM solute; for ε (Apparent Encapsulation Efficiency) SDBS-Rich V^−: V^− vesicles 3:7 w/w CTAT:SDBS; for ε (Apparent Encapsulation Efficiency) CTAT-Rich V^+: V^+ vesicles 7:3 w/w CTAT:SDBS
Description: For the determination of encapsulation efficiencies, vesicles were prepared using aqueous solutions containing 1.0 mM carboxyfluorescein (CF) dye. The formation of CTAT-rich vesicles (7:3 CTAT to SDBS w/w) appeared to be inhibited at CF concentrations of 5 mM or greater. High concentrations of CF (and similarly, other solutes) tended to disrupt the vesicles and lead to precipitation over time. Vesicle stability appeared to be unaffected when the solute concentration is kept below 5 mM, and at these concentrations solute encapsulation does occur. For CF, a pH ˜9 was required in order to fully dissolve the dye, and the stock solutions were adjusted accordingly. The CF/CTAT/SDBS solutions were stirred for 15-30 min and the resulting vesicle solutions were allowed to equilibrate in the dark at room temperature for at least 48 h. Dynamic light scattering (DLS) was then used to confirm vesicle formation. SDBS-rich vesicles (e.g., 3:7 CTAT to SDBS w/w) could be prepared with higher CF concentrations (up to ca. 100 mM); however CF encapsulation in these vesicles was reduced relative to that of CTAT-rich vesicles and in many cases CF encapsulation by SDBS-rich vesicles (i.e., the formation of distinct bands in the chromatography column, see below) was not achieved.
as §1
To measure the apparent encapsulation efficiency ε, size exclusion chromatography (SEC) was used to separate the free solute from that encapsulated by the vesicles. A 2×25 cm column packed with Sephadex G50 resin (medium mesh, Amersham Biosciences) or a 1.3 cm×21 cm SEC column packed with Sephadex G50 resin (medium mesh, from Amersham Biosciences) was used. An aliquot of the vesicle-solute sample was run through the SEC column.
During elution, vesicle solutions divided into bands that were visible with the naked eye or by UV lamp, e.g., in the case of CF dye containing vesicles, two clear bands, the leading band containing the dye-bearing vesicles and the second band containing the free dye. During elution, fractions were collected and analyzed, and a series of such fractions for a typical experiment is shown in FIG. 6 (the solute in FIG. 6 is CF). The band containing the vesicles was collected for further studies of vesicle leakage, as described below. Dynamic light scattering was used to determine which of the eluted fractions contained vesicles, and the vesicles were consistently found to elute at 5.5 ml, total elution volume.
The amount of solute in each fraction was determined using UV-vis spectroscopy (Hitachi U-3010 Spectrometer). The encapsulation efficiency (ε) value is defined as the amount of encapsulated solute relative to the total initial amount of solute:
V designates volume, A designates absorbance, i denotes initial values taken from the original preparation, and f denotes values taken from the fractions eluted from the SEC column shown by dynamic light scattering to contain vesicles. Thus, the value of ε gives percentage of dye that is captured by the vesicles during their preparation. […]

[7] = format: physicochemical
Description: A more general procedure based on SEC that can be applied to a wide range of solutes, including non-self-quenching and non-fluorescent ones was also used. The initial vesicle-solute mixture was purified using SEC (as described above) to remove the free, unencapsulated solute. The sample was then checked for release of solute from the vesicles over the course of several weeks. For this purpose, small-scale separations using quick-spin columns pre-packed with Sephadex G50 (fine) were performed (column from Roche, additional beads for repacking the columns from Sigma). On a specific day, a 100 μL aliquot was run through a quick-spin column by centrifugation (3000 rpm, 15 s), and the eluted fraction was evaluated using UV-vis spectroscopy. Any solute that had been released from the vesicles was retained by the quick-spin column. Therefore, the amount of solute eluted by the column corresponded to the solute still encapsulated by the vesicles. The UV-vis absorption value for the eluted sample was divided by the corresponding value obtained on day zero (immediately after SEC) to yield a fraction of solute that remains encapsulated in the vesicles. This method directly yielded the apparent encapsulation, ε, as a function of time. […]

[8] = cited from earlier work

| Effect of solute on V^+ vesicle radii ([1]; 1 mM solute) | Effect of solute on V^− vesicle radii ([1]; 1 mM solute) | Vesicle Radius after SEC by DLS CTAT-Rich V^+ [1] | Vesicle Radius after SEC by DLS SDBS-Rich V^− [1] | Release rate slower than from EYPC vesicles ([2]; CF from V^+ vesicles vs EYPC vesicles) | Period over which CF dye is released ([2]; EYPC vesicles) | Release of CF ([2]; V^+ vesicles, after 27 days) | Electrostatic adsorption contribution to overall apparent encapsulation efficiency ε ([3]; CF added to pre-formed V^+ vesicles vs vesicles formed with CF) | Dye carried through SEC column within the V^+ vesicle band [4] | Dye in the V^− vesicle band emerging from SEC column [4] | Actual encapsulation efficiency for dye in the V^+ water pool [5] | ε (Apparent Encapsulation Efficiency) SDBS-Rich V^− [6] | Half life in the vesicles [7] | Retention of solute relative to liposomes ([7]; catanionic vesicles vs EYPC liposomes) | Separation of LY and Dox by catanionic vesicles in SEC [4] | ε (Apparent Encapsulation Efficiency) CTAT-Rich V^+ [6] | ε (Apparent Encapsulation Efficiency) SDBS-Rich V^− ([6]; hydrochloride) | ε when dye added to pre-made vesicles, as share of Table 1 value ([3]; R6G added to pre-made V^− vesicles) | Increase in the radii of V^+ vesicles ([1]; 1 mM solute, vs neat vesicles) | Compound | pKa [8] |
| --- | --- | --- | --- | --- | --- | --- | --- | --- | --- | --- | --- | --- | --- | --- | --- | --- | --- | --- | --- | --- |
|  |  | 156 ± 24 nm | 109 ± 16 nm |  |  |  |  | no detectable | 88% |  | 72% and 72 ± 3% |  |  |  | 0.07 ± 0.1% |  | ca. 85% |  | CCN=c1cc2oc3cc(NCC)c(C)cc3c(-c3ccccc3C(=O)OCC)c-2cc1C.Cl [R6G, rhodamine 6G] |  |
|  |  | 122 ± 38 nm | 84 ± 7 nm |  |  |  |  |  |  |  | 8.2% |  |  |  | 32.8% |  |  |  | O=S(=O)([O-])c1cc(S(=O)(=O)O)ccc1C1=c2cc3c4c(c2Oc2c1cc1c5c2CCCN5CCC1)CCC[N+]=4CCC3 [SR 101, sulforhodamine 101] |  |
|  | no effect | 208 ± 18 nm | 96 ± 3 nm |  |  |  |  |  |  |  | 4% |  |  | Very efficient separation | 40 ± 20% |  |  | 2.5 fold | Lucifer yellow [LY] |  |

More lines, now with the values behind:

| Compound | Effect of solute on V^+ vesicle radii ([1]; 1 mM solute) | Effect of solute on V^− vesicle radii ([1]; 1 mM solute) | Vesicle Radius after SEC by DLS CTAT-Rich V^+ [1] | Vesicle Radius after SEC by DLS SDBS-Rich V^− [1] | Release rate slower than from EYPC vesicles ([2]; CF from V^+ vesicles vs EYPC vesicles) | Period over which CF dye is released ([2]; EYPC vesicles) | Release of CF ([2]; V^+ vesicles, after 27 days) | Electrostatic adsorption contribution to overall apparent encapsulation efficiency ε ([3]; CF added to pre-formed V^+ vesicles vs vesicles formed with CF) | Dye carried through SEC column within the V^+ vesicle band [4] | Dye in the V^− vesicle band emerging from SEC column [4] | Actual encapsulation efficiency for dye in the V^+ water pool [5] | ε (Apparent Encapsulation Efficiency) SDBS-Rich V^− [6] | Half life in the vesicles [7] | Retention of solute relative to liposomes ([7]; catanionic vesicles vs EYPC liposomes) | Separation of LY and Dox by catanionic vesicles in SEC [4] | ε (Apparent Encapsulation Efficiency) CTAT-Rich V^+ [6] | ε (Apparent Encapsulation Efficiency) SDBS-Rich V^− ([6]; hydrochloride) | ε when dye added to pre-made vesicles, as share of Table 1 value ([3]; R6G added to pre-made V^− vesicles) | Increase in the radii of V^+ vesicles ([1]; 1 mM solute, vs neat vesicles) | pKa [8] |
| --- | --- | --- | --- | --- | --- | --- | --- | --- | --- | --- | --- | --- | --- | --- | --- | --- | --- | --- | --- | --- |
| 5(6)-carboxyfluorescein [CF] | essentially unchanged | essentially unchanged | 87 ± 5 nm | 91 ± 8 nm | at least 40 times | about 5 days | approximately 20% | about 75% | 31% | negligible | ca. 5% | 1.0 ± 0.4% | 114 days | 40-60 times |  |  |  |  |  |  |
| COc1cccc2c1C(=O)c1c(O)c3c(c(O)c1C2=O)C[C@@](O)(C(=O)CO)C[C@@H]3O[C@H]1C[C@H](N)[C@H](O)[C@H](C)O1 [Dox, doxorubicin hydrochloride] |  |  | 143 ± 32 nm | 93 ± 4 nm |  |  |  |  |  |  |  |  |  |  | Very efficient separation | 0% | 55% |  |  | ~7.619 |
